According to US8921555B2, “Substituted-1,3,8-triazaspiro[4.5]decane-2,4-diones” (Merck Sharp & Dohme Corp., priority 2009, dated 2014):

Experiments:
Assay type in all cases: biochemical
HIF-PHD2 = target: T1, HIF-PHD2 (Homo sapiens, UniProt Q9GZT9); experiment: Assay for HIF-PHD2 Catalytic Activity (PHD2 Binding Activity)
T1 construct: FLAG-tagged full length PHD2 expressed in and purified from baculovirus-infected Sf9 cells; FLAG; made in house; host or cells: baculovirus-infected Sf9 cells

HIF-PHD1 = HIF-PHD1 (Homo sapiens, UniProt Q96KS0); experiment: Inhibition of the catalytic activity of HIF-PHD1; conditions: comparison compounds of WO 2008/030412; read-out: IC50 (nM) HIF-PHD-1
HIF-PHD1, sequence (Q96KS0 whole entry): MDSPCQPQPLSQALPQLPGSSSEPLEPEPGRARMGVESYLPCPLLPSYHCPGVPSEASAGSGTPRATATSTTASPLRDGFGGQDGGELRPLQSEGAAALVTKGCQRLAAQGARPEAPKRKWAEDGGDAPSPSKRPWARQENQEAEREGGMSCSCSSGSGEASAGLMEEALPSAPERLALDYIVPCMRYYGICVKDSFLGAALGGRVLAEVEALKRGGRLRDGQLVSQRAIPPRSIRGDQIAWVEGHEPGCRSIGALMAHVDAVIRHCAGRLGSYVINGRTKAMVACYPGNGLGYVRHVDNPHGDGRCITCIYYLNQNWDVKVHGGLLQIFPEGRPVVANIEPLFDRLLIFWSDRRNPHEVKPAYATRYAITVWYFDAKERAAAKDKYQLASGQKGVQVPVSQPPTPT
Method: (§1) To each well of a 96-well plate was added 1 μL of test compound in DMSO and 20 μL of assay buffer (50 mM Tris pH 7.4/0.01% Tween-20/0.1 mg/ml bovine serum albumin/10 μM ferrous sulfate/1 mM sodium ascorbate/20 μg/ml catalase) containing 0.15 μg/ml FLAG-tagged full length PHD2 expressed in and purified from baculovirus-infected Sf9 cells. After a […] at room temperature, the enzymatic reactions were initiated by the addition of 4 μL of substrates (final concentrations of 0.2 μM 2-oxoglutarate and 0.5 μM HIF-1α peptide biotinyl-[…]). After 2 hr at room temperature, the reactions were terminated and signals were developed by the addition of a 25 μL quench/detection mix to a final concentration of 1 mM ortho-phenanthroline, 0.1 mM EDTA, 0.5 nM anti-(His)6 LANCE reagent (Perkin-Elmer Life Sciences), 100 nM AF647-labeled streptavidin (Invitrogen), and 2 μg/ml (His)6-VHL complex (S. Tan(2001) Protein Expr. Purif. 21, 224-234). The ratio of time resolved fluorescence signals at 665 and 620 nm was determined, and percent inhibition was calculated relative to an uninhibited control sample run in parallel.
(§2) Inhibition of the catalytic activity of HIF-PHD1 and HIF-PHD3 can be determined similarly.

HIF-PHD3 = HIF-PHD3 (Homo sapiens, UniProt Q9H6Z9); experiment: Inhibition of the catalytic activity of HIF-PHD3; conditions: comparison compounds of WO 2008/030412; read-out: IC50 (nM) HIF-PHD-3
HIF-PHD3, sequence (Q9H6Z9 whole entry): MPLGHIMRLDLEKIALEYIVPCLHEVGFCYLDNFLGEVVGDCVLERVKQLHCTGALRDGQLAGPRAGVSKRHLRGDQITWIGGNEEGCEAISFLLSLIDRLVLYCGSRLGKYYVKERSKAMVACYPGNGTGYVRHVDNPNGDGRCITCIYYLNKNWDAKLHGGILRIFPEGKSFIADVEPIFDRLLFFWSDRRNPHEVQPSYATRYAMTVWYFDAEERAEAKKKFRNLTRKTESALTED
Method: as §1, §2

T1 sequence (Q9GZT9 whole entry): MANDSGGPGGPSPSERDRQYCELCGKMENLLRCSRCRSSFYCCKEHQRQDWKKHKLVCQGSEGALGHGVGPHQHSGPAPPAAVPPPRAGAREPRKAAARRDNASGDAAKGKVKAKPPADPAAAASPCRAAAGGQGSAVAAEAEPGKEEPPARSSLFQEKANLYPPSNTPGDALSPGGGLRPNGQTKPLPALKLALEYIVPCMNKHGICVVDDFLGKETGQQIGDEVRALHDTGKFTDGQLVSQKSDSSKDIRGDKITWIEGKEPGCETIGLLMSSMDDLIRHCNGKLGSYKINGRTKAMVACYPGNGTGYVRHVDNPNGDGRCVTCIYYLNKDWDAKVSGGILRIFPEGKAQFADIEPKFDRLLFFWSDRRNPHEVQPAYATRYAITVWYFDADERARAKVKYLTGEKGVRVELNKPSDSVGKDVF

## COc1cc(N2C(=O)N(c3ccc(-c4ccc(C(=O)O)cc4F)nc3)C(=O)C23CCN(Cc2ncccc2C)CC3)ncn1 [Compound 12-1, 3-fluoro-4-(5-{1-(6-methoxypyrimidine-4-yl)-8-[(3-methylpyridin-2-yl)methyl]-2,4-dioxo-1,3,8-triazaspiro[4.5]dec-3-yl}pyridin-2-yl)-3-benzoic acid]
HIF-PHD2
  IC50: 0.0005 to 0.02 µM

## CC(C)Oc1cccc(CN2CC[C@@]3(C[C@@H]2C)C(=O)N(c2ccccc2)C(=O)N3c2cccc(F)c2)c1 [Egbertson's Example 31]
HIF-PHD2
  IC50: > 10 µM
HIF-PHD1
  IC50: > 10000 nM
HIF-PHD3
  IC50: > 10000 nM
